The term IC50 denotes the concentration that gives 50% inhibition.

For this test, the target named is T1, human PAD4 (Homo sapiens, UniProt Q9UM07).
T1 construct: human PAD4 (NM_012387), A2P663, was PCR amplified; His-SUMO (N, cleaved yes); made in house; host or cells: E. coli BL21(DE3)
T1 sequence (Q9UM07 2-663): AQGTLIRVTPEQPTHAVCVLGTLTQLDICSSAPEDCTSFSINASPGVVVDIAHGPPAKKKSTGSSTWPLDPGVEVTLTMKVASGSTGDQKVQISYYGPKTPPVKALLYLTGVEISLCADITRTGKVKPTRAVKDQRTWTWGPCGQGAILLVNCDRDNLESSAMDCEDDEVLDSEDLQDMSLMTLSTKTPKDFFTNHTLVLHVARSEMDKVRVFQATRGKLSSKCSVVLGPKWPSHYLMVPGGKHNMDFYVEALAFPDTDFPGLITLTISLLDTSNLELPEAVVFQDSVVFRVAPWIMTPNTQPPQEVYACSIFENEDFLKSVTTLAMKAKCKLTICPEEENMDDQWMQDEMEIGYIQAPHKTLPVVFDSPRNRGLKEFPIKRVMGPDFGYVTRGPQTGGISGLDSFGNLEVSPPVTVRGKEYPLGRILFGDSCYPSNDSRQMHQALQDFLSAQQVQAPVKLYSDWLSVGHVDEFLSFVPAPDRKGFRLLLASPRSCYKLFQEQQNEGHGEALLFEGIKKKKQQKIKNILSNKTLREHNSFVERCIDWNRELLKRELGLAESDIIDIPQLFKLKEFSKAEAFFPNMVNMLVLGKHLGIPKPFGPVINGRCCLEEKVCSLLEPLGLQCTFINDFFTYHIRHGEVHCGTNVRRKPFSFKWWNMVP
The test is described as follows: In vitro PAD4 BAEE biochemical assay. Conditions: human PAD4, BAEE substrate; 5 nM PAD4, 2 mM calcium chloride, 3 mM BAEE; geometric mean of multiple experiments. Put shortly: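 Ammonia generated from BAEE serves as the readout, measured by o-phthalaldehyde after EDTA termination. Final conditions: 5 nM human PAD4 (SUMO tag cleaved), 2 mM CaCl2, 3 mM BAEE, pH 7.6 MOPS buffer, 25 °C for 2 h following a 30-min compound preincubation.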
As to `COc1cc(C(=O)N2[C@H]3CC[C@@H]2[C@H](N)C3)cc2nc(-c3cc4ccc([C@@H](C)NC(=O)c5cnn(C6CC6)c5)nc4n3CC3CC3)c(C)n12` [Example 106, ~{N}-[(1~{R})-1-[2-[7-[(1~{R},2~{R},4~{S})-2-amino-7-azabicyclo [2.2.1]heptane-7-carbonyl]-5-methoxy-3-methylimidazo [1,2-a]pyridin-2-yl]-1-(cyclopropylmethyl)pyrrolo [2,3-b]pyridin-6-yl]ethyl]-1-cyclopropylpyrazole-4-carboxamide], the IC50 stood at 40.6 nM. `COc1ccc(-c2ccc3cc(-c4nc5cc(C(=O)N6[C@H]7CC[C@@H]6[C@H](N)C7)cc(OC)n5c4C)n(CC4CC4)c3n2)c(C)n1` [Example 556, [(1~{R},2~{R},4~{S})-2-amino-7-azabicyclo [2.2.1]heptan-7-yl]-[2-[1-(cyclopropylmethyl)-6-(6-methoxy-2-methylpyridin-3-yl)pyrrolo[2,3-b]pyridin-2-yl]-5-methoxy-3-methylimidazo[1,2-a]pyridin-7-yl]methanone]: the concentration for half-maximal inhibition (IC50) amounted to 296 nM. As to `COc1cc(C(=O)N2[C@H]3CC[C@@H]2[C@H](N)C3)cc2nc(-c3cc4ccc(-c5cncc(F)c5C)nc4n3CC3CC3)c(C)n12` [Example 564, [(1~{R},2~{R},4~{S})-2-amino-7-azabicyclo [2.2.1]heptan-7-yl]-[2-[1-(cyclopropylmethyl)-6-(5-fluoro-4-methylpyridin-3-yl)pyrrolo [2,3-b]pyridin-2-yl]-5-methoxy-3-methylimidazo[1,2-a]pyridin-7-yl]methanone], the IC50 stood at 332 nM. On to `COc1cc(C(=O)N2[C@H]3CC[C@@H]2[C@H](N)C3)cc2nc(-c3cc4ccc([C@@H](C)NC(=O)c5ccccn5)nc4n3CC3CC3)c(C)n12` [Example 175, ~{N}-[(1~{R})-1-[2-[7-[(1~{R},2~{R},4~{S})-2-amino-7-azabicyclo[2.2.1]heptane-7-carbonyl]-5-methoxy-3-methylimidazo [1,2-a]pyridin-2-yl]-1-(cyclopropylmethyl)pyrrolo [2,3-b]pyridin-6-yl]ethyl]pyridine-2-carboxamide], for which the IC50 stood at 181 nM. In the case of `CC1(c2c(-c3cc4ccc(N(C(F)F)S(C)(=O)=O)nc4n3CC3CC3)nc3cc(C(=O)N4CCC[C@@H](N)C4)ccn23)CC1` [Example 435, ~{N}-[2-[7-[(3~{R})-3-aminopiperidine-1-carbonyl]-3-(1-methylcyclopropyl)imidazo[1,2-a]pyridin-2-yl]-1-(cyclopropylmethyl)pyrrolo[2,3-b]pyridin-6-yl]-~{N}-(difluoromethyl) methanesulfonamide], the half-maximal inhibitory concentration (IC50) is 11300 nM. Next, `COc1cc(C(=O)N2[C@H]3CC[C@@H]2[C@H](N)C3)cc2nc(-c3cc4ccc([C@@H](C)NC(=O)[C@H]5C[C@@](C)(O)C5)nc4n3CC3CC3)c(C)n12` [Example 54, ~{N}-[(1~{R})-1-[2-[7-[(1~{R},2~{R}, 4~{S})-2-amino-7-azabicyclo[2.2.1]heptane-7-carbonyl]-5-methoxy-3-methylimidazo[1,2-a]pyridin-2-yl]-1-(cyclopropylmethyl)pyrrolo[2,3-b]pyridin-6-yl]ethyl]-3-hydroxy-3-methylcyclobutane-1-carboxamide]: 28.7 nM; `COc1cc(C(=O)N2[C@H]3CC[C@@H]2[C@H](N)C3)cc2nc(-c3cc4ccc([C@@H](C)NC(=O)C5CCC5(F)F)nc4n3CC3CC3)c(C)n12` (some centres unmarked) [Example 61, ~{N}-[(1~{R})-1-[2-[7-[(1~{R},2~{R},4~{S})-2-amino-7-azabicyclo [2.2.1]heptane-7-carbonyl]-5-methoxy-3-methylimidazo [1,2-a]pyridin-2-yl]-1-(cyclopropylmethyl)pyrrolo[2,3-b]pyridin-6-yl]ethyl]-2,2-difluorocyclobutane-1-carboxamide]: 37.8 nM.

With `CCn1cc(C(=O)N[C@H](C)c2ccc3cc(-c4nc5cc(C(=O)N6[C@H]7CC[C@@H]6[C@H](N)C7)cc(OC)n5c4C)n(CC4CC4)c3n2)cn1` [Example 77, ~{N}-[(1~{R})-1-[2-[7-[(1~{R},2~{R},4~{S})-2-amino-7-azabicyclo[2.2.1]heptane-7-carbonyl]-5-methoxy-3-methylimidazo [1,2-a]pyridin-2-yl]-1-(cyclopropylmethyl)pyrrolo [2,3-b]pyridin-6-yl]ethyl]-1-ethylpyrazole-4-carboxamide], the 50% inhibitory concentration (IC50) worked out at 30.7 nM. To `COc1cc(C(=O)N2[C@H]3CC[C@@H]2[C@H](N)C3)cc2nc(-c3cc4ccc([C@@H](C)N5C(=O)CCC5C)nc4n3CC3CC3)c(C)n12` (some centres unmarked) [Example 269, 1-[(1~{R})-1-[2-[7-[(1~{R},2~{R},4~{S})-2-amino-7-azabicyclo[2.2.1]heptane-7-carbonyl]-5-methoxy-3-methylimidazo [1,2-a]pyridin-2-yl]-1-(cyclopropylmethyl)pyrrolo [2,3-b]pyridin-6-yl]ethyl]-5-methylpyrrolidin-2-one] belongs 67.8 nM; to `CCOC(=O)C1CC1c1c(-c2cc3ccc(N(C(F)F)S(C)(=O)=O)nc3n2CC2CC2)nc2cc(C(=O)N3CCC[C@@H](N)C3)ccn12` (some centres unmarked) [Example 432, ethyl 2-[7-[(3~{R})-3-aminopiperidine-1-carbonyl]-2-[1-(cyclopropylmethyl)-6-[difluoromethyl (methylsulfonyl)amino]pyrrolo[2,3-b]pyridin-2-yl]imidazo[1,2-a]pyridin-3-yl]cyclopropane-1-carboxylate], 2490 nM; to `COc1cc(C(=O)N2CCC[C@@H](N)CC2)cc2nc(-c3cc4ccc([C@@H](C)NC(=O)C56CC(F)(C5)C6)nc4n3CC3CC3)c(C)n12` [Example 38, ~{N}-[(1~{R})-1-[2-[7-[(4~{R})-4-aminoazepane-1-carbonyl]-5-methoxy-3-methylimidazo[1,2-a]pyridin-2-yl]-1-(cyclopropylmethyl)pyrrolo[2,3-b]pyridin-6-yl]ethyl]-3-fluorobicyclo[1.1.1] pentane-1-carboxamide], 30600 nM. Take `COc1cc(C(=O)N2CC[C@H]3CCN[C@H]3C2)cc2nc(-c3cc4ccc([C@@H](C)NC(=O)c5ccccc5)nc4n3CC3CC3)c(C)n12` [Example 59, ~{N}-[(1~{R})-1-[2-[7-[(3~{a}~{R}, 7~{a}~{R})-1,2,3,3~{a},4,5,7,7~{a}-octahydropyrrolo[2,3-c]pyridine-6-carbonyl]-5-methoxy-3-methylimidazo[1,2-a]pyridin-2-yl]-1-(cyclopropylmethyl)pyrrolo[2,3-b]pyridin-6-yl]ethyl]benzamide]: the IC50 stood at 194 nM. Regarding `COc1cc(C(=O)N2[C@H]3CC[C@@H]2[C@H](N)C3)cc2nc(-c3cc4ccc(-c5ccccc5C(F)(F)F)nc4n3CC3CC3)c(C)n12` [Example 549, [(1~{R},2~{R},4~{S})-2-amino-7-azabicyclo [2.2.1]heptan-7-yl]-[2-[1-(cyclopropylmethyl)-6-[2-(trifluoromethyl)phenyl]pyrrolo[2,3-b]pyridin-2-yl]-5-methoxy-3-methylimidazo[1,2-a]pyridin-7-yl]methanone], the IC50 is 3670 nM.

As for `COC(=O)C12CC(C(=O)N[C@H](C)c3ccc4cc(-c5nc6cc(C(=O)N7[C@H]8CC[C@@H]7[C@H](N)C8)cc(OC)n6c5C)n(CC5CC5)c4n3)(C1)C2` [Example 159, methyl 3-[[(1~{R})-1-[2-[7-[(1~{R},2~{R},4~{S})-2-amino-7-azabicyclo[2.2.1]heptane-7-carbonyl]-5-methoxy-3-methylimidazo [1,2-a]pyridin-2-yl]-1-(cyclopropylmethyl)pyrrolo [2,3-b]pyridin-6-yl]ethyl]carbamoyl]bicyclo[1.1.1] pentane-1-carboxylate], the IC50 was found to be 58.3 nM.

(Values after US12240862B2, “Inhibitors of peptidylarginine deiminases” (Gilead Sciences, Inc., priority 2020, dated 2025).)
